Data taken from ChEMBL document CHEMBL1132889, “Synthesis and evaluation of 9,9-dimethylxanthene tricyclics against trypanothione reductase, Trypanosoma brucei, Trypanosoma cruzi and Leishmania donovani” (2000).
≈ marks a conversion by molar mass, not a printed value.

Columns and labels:
Trypanosoma brucei [1] = assay: The compound was evaluated in vitro for its inhibitory affect against Trypanosoma brucei; (0.03 mM Sb); type: functional; conditions: read-out: ED50 (the source's name)
Trypanosoma cruzi [2] = assay: The compound was evaluated in vitro for its inhibitory affect against Trypanosoma cruzi; type: functional; conditions: read-out: ED50 (the source's name)
Trypanosoma brucei [3] = assay: The compound was evaluated in vitro for its inhibitory affect against Trypanosoma brucei; (7.58 mM Sb); type: functional; conditions: read-out: ED50 (the source's name)
[4] = target: Trypanothione reductase (Trypanosoma cruzi) (UniProt P28593); assay: The compound was evaluated in vitro for its inhibitory affect against trypanothione reductase; design: concentration or dose not given beside the values; conditions: concentration not given here
Leishmania donovani [5] = assay: The compound was evaluated in vitro for its inhibitory affect against Leishmania donovani; type: functional; conditions: read-out: ED50 (the source's name)
[6] = Cytotoxicity against peritoneal macrophages of female CD1 mice culturing amastigote stages of Trypanosoma cruzi; type: functional; conditions: Mus musculus
[7] = Cytotoxicity against peritoneal macrophages of female CD1 mice culturing amastigote stages of Leishmania donovani; type: functional; conditions: Mus musculus
Trypanosoma brucei [8] = assay: The compound was evaluated in vitro for its inhibitory affect against Trypanosoma brucei; (9.66 mM Sb); type: functional; conditions: read-out: ED50 (the source's name)
Trypanosoma brucei [9] = assay: The compound was evaluated in vitro for its inhibitory affect against Trypanosoma brucei; (0.098 mM Sb); type: functional; conditions: read-out: ED50 (the source's name)
Trypanosoma cruzi [10] = assay: In vitro inhibitory affect against Trypanosoma cruzi; (32.7 mM Sb); type: functional; conditions: read-out: ED50 (the source's name)
Trypanosoma brucei [11] = assay: The compound was evaluated in vitro for its inhibitory affect against Trypanosoma brucei; (0.02 mM Sb); type: functional; conditions: read-out: ED50 (the source's name)
Trypanosoma cruzi [12] = assay: The compound was evaluated in vitro for its inhibitory affect against Trypanosoma cruzi; (0.48 mM Sb); type: functional; conditions: read-out: ED50 (the source's name)
Leishmania donovani [13] = assay: The compound was evaluated in vitro for its inhibitory affect against Leishmania donovani; (0.55 mM Sb); type: functional; conditions: read-out: ED50 (the source's name)
Leishmania donovani [14] = assay: The compound was evaluated in vitro for its inhibitory affect against Leishmania donovani; (32.6 mM Sb); type: functional; conditions: read-out: ED50 (the source's name)
Trypanosoma brucei [15] = assay: The compound was evaluated in vitro for its inhibitory affect against Trypanosoma brucei; (8.24 mM Sb); type: functional; conditions: read-out: ED50 (the source's name)
Trypanosoma brucei [16] = assay: The compound was evaluated in vitro for its inhibitory affect against Trypanosoma brucei; (0.14 mM Sb); type: functional; conditions: read-out: ED50 (the source's name)

Trypanothione reductase (Trypanosoma cruzi), sequence (P28593 whole entry, looked up): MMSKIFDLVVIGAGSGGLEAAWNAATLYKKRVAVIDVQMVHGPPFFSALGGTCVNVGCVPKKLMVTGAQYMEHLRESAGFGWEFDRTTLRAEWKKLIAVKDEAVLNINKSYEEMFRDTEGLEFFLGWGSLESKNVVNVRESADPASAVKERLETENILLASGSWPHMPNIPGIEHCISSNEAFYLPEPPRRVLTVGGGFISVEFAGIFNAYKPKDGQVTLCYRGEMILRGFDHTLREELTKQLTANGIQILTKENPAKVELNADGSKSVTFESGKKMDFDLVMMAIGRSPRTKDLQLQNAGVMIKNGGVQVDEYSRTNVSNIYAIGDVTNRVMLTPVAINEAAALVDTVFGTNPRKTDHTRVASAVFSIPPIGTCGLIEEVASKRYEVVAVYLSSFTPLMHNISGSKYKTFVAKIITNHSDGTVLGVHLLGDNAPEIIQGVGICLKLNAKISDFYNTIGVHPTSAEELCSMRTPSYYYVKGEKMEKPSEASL

| SMILES | EC50 (Trypanosoma cruzi [2]) | inhibition [4] | EC50 (Leishmania donovani [5]) | MIC [6] | MIC [7] | further results |
| --- | --- | --- | --- | --- | --- | --- |
| N=C(N)c1ccc(OCCCCCOc2ccc(C(=N)N)cc2)cc1 [PENTAMIDINE] |  |  |  |  |  | EC50 (Trypanosoma brucei [1]): 0.01 µg/mL (≈ 0.0294 µM) |
| CN(C)CCCNCc1cccc2c1Oc1c(CNCCCN(C)C)cccc1C2(C)C | > 30 µg/mL | 13.8% | > 30 µg/mL | > 300 µg/mL | > 300 µg/mL | EC50 (Trypanosoma brucei [3]): 3.32 µg/mL (≈ 7.57 µM) |
| CN(C)CCCNC(=O)c1cccc2c1Oc1c(C(=O)NCCCN(C)C)cccc1C2(C)C | > 30 µg/mL | 40% | > 30 µg/mL | > 300 µg/mL | > 300 µg/mL | EC50 (Trypanosoma brucei [8]): 4.5 µg/mL (≈ 9.64 µM) |
| CN(C)CCC/N=C(\S)NCCCc1cccc2c1Oc1c(CCCN/C(S)=N/CCCN(C)C)cccc1C2(C)C | > 30 µg/mL | 52% | > 30 µg/mL | > 30 µg/mL | > 30 µg/mL | EC50 (Trypanosoma brucei [9]): 0.06 µg/mL (≈ 0.0979 µM) |
| O=C(Cn1ccnc1[N+](=O)[O-])NCc1ccccc1 [BENZNIDAZOLE] |  |  |  |  |  | EC50 (Trypanosoma cruzi [10]): 8.5 µg/mL (≈ 32.7 µM) |
| CN(C)CCCNC(=O)c1cc(C(C)(C)C)cc2c1Oc1c(C(=O)NCCCN(C)C)cc(C(C)(C)C)cc1C2(C)C |  | 28.4% |  | > 30 µg/mL | > 30 µg/mL | EC50 (Trypanosoma brucei [11]): 0.01 µg/mL (≈ 0.0173 µM); EC50 (Trypanosoma cruzi [12]): 0.28 µg/mL (≈ 0.484 µM); EC50 (Leishmania donovani [13]): 0.32 µg/mL (≈ 0.553 µM) |
| CN(C)CCCNC(=O)CCc1cccc2c1Oc1c(CCC(=O)NCCCN(C)C)cccc1C2(C)C | > 30 µg/mL | 58% |  | > 300 µg/mL | > 300 µg/mL | EC50 (Leishmania donovani [14]): 17 µg/mL (≈ 32.6 µM); EC50 (Trypanosoma brucei [15]): 4.3 µg/mL (≈ 8.23 µM) |
| CN(C)CCCNCCCc1cccc2c1Oc1c(CCCNCCCN(C)C)cccc1C2(C)C | > 30 µg/mL | 63% | > 30 µg/mL | > 30 µg/mL | > 30 µg/mL | EC50 (Trypanosoma brucei [16]): 0.07 µg/mL (≈ 0.141 µM) |
